Reference: patent publication US5922891A, “2-substituted 1,8-dihydroxy-9(10H)-anthracenone pharmaceuticals” (priority 1997, dated 1999)

What was measured:
HaCaT cells [1] = experiment: Antiproliferative activity against HaCaT cells (human keratinocyte cell line); assay type: cell-based; details: 48 h, read-out: AA IC50 (antiproliferative activity)
[2] = Deoxyribose degradation as a measure of hydroxyl radical formation; assay type: biochemical; details: 75 μM test compound; controls < 0.1
HaCaT cells [3] = details: cited from earlier work
[4] = test system: LTB4 production in human neutrophils; details: depending on cell density, read-out: IC50, inhibition of LTB4 production, human neutrophils; cited from earlier work
[5] = cited from earlier work
[6] = psoriasis therapy; cited from earlier work

In the case of `O=C1c2c(O)cccc2Cc2cccc(O)c21` [anthralin], the IC50 (HaCaT cells [1]) is listed as 0.5 to 0.7 µM, the “DD (deoxyribose degradation, malondialdehyde released)” value [2] is listed as 2.89 ± 0.14 μmol of MDA/mmol and the “sensitivity of HaCaT cells to antiproliferative action” value (HaCaT cells [3]) is listed as “extremely sensitive target for the antiproliferative action of anthralin”. For the same compound, the IC50 [4] was 7 to 74 µM, the “lipid peroxidation in the presence of iron” value [5] was “enhancement of anthralin-induced lipid peroxidation in the presence of iron” and the “side effects of anthralin therapy” value [6] was “increased inflammation and irritation of non-effected skin surrounding treated lesions”.
